Measured values reported in US8431567B2 (Abbott GmbH & Co. KG, priority 2006, dated 2013).
Counter-ions that a name gives are not always drawn.

Target: T1, human vasopressin V1b receptor (Homo sapiens, UniProt P47901)
T1 construct: expressed in transfected cells; host or cells: CHO-K1 (cell line hV1b_3H2_CHO), membrane preparation
T1 sequence (P47901 1-424): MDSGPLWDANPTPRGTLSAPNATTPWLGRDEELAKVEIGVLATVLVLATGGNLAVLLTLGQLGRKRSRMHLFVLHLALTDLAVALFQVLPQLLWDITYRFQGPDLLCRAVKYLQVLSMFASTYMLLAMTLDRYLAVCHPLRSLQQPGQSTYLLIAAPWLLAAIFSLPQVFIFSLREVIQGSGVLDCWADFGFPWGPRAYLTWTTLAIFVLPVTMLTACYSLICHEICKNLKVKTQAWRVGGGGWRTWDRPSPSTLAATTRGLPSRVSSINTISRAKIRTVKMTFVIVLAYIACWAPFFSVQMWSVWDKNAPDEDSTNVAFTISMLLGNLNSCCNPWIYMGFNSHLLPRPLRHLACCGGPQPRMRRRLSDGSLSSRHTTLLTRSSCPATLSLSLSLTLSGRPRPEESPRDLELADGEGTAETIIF
Assay: Vasopressin V1b receptor binding test
Conditions: membranes of CHO-K1 cells, displacement of 1.5 nM 3H-AVP
Experimental: • Vasopressin V1b Receptor Binding Test: • Substances:
The test substances were dissolved at a concentration of 10^−2 M in DMSO and diluted further in DMSO to 5×10^−4 M to 5×10^−9 M. These DMSO solutions were diluted 1:10 with test buffer. The concentration of substance was again diluted 1:5 in the test preparation.
The membrane pellet was homogenized and centrifuged again as described, and then taken up in 50 mM Tris-HCl, pH 7.4, homogenized and, frozen in aliquots, stored at −190° C. in liquid nitrogen.
The incubation buffer was: 50 mM Tris, 10 mM MgCl2, 0.1% BSA, pH 7.4. […] The nonspecific binding was determined with 1 μM AVP (Bachem #H1780). All determinations were performed in triplicate. After incubation (60 minutes at room temperature), the free radioligand was filtered off by vacuum filtration (Skatron cell harvester 7000) on Whatman GF/B glass-fibre filter mats and the filters were transferred to scintillation vessels. Liquid scintillation measurement was performed in a Tricarb instrument, Model 2000 or 2200CA (Packard). Conversion of the measured cpm to dpm was performed with the aid of a standard quench series.
The binding parameters were calculated by nonlinear regression in SAS.
For the compounds according to the invention, the affinities for the human vasopressin receptor V1b were measured according to the above test and the affinity constant (Ki) was determined.

`COc1ccc(S(=O)(=O)N2C(=O)C(c3ccccc3OC)(N3CCN(c4ccncc4)CC3)c3ccc(C)cc32)c(OC)c1` (centres unmarked) [Example 23, 1-(2,4-Dimethoxy-benzenesulphonyl)-3-(2-methoxyphenyl)-6-methyl-3-(4-pyridin-4-yl-piperazin-1-yl)-1,3-dihydro-indol-2-one] and `COc1ccc(S(=O)(=O)N2C(=O)C(c3ccccc3OC)(N3CCN(c4ccncc4)CC3)c3cc(C#N)ccc32)c(OC)c1` (centres unmarked) [Example 26, 5-Cyano-1-(2,4-dimethoxy-benzenesulphonyl)-3-(2-methoxyphenyl)-3-(4-pyridin-4-yl-piperazin-1-yl)-2,3-dihydro-1H-indol-2-one] fall in the same range of Ki: 50 to 500 nM for the first, 50 to 500 nM for the second.

First: COc1ccc(S(=O)(=O)N2C(=O)C(c3ccccc3Cl)(N3CCN(c4ccncc4)CC3)c3cc(Cl)ccc32)c(OC)c1 (centres unmarked) [Example 24, 5-Chloro-3-(2-chloro-phenyl)-1-(2,4-dimethoxy-benzenesulphonyl)-3-(4-pyridin-4-yl-piperazin-1-yl)-1,3-dihydro-indol-2-one]
Second: COCc1ccccc1C1(N2CCN(c3ccncc3)CC2)C(=O)N(S(=O)(=O)c2ccc(OC)cc2OC)c2ccc(Cl)cc21 (centres unmarked) [Example 32, 5-Chloro-1-(2,4-dimethoxy-benzenesulphonyl)-3-(2-methoxymethylphenyl)-3-(4-pyridin-4-yl-piperazin-1-yl)-1,3-dihydro-indol-2-one]
The Ki of the first is lower: under 50 nM for the first, 50 to 500 nM for the second. The first binds more tightly here.

Compared with `COc1ccc(S(=O)(=O)N2C(=O)C(c3cc(CN(C)C)ccc3OC)(N3CCN(c4ccncc4)CC3)c3cc(Cl)ccc32)c(OC)c1` (centres unmarked) [Example 25, 5-Chloro-1-(2,4-dimethoxy-benzenesulphonyl)-3-(5-dimethylaminomethyl-2-methoxyphenyl)-3-(4-pyridin-4-yl-piperazin-1-yl)-1,3-dihydro-indol-2-one], `COc1ccc(C2(N3CCN(c4ccncc4)CC3)C(=O)N(S(=O)(=O)c3ccc(OC)cc3OC)c3ccc(Cl)cc32)c(OC)c1` (centres unmarked) [Example 30, 5-Chloro-1-(2,4-dimethoxy-benzenesulphonyl)-3-(2,4-dimethoxyphenyl)-3-(4-pyridin-4-yl-piperazin-1-yl)-1,3-dihydro-indol-2-one, HCl salt] is lower in Ki: 50 to 500 nM for the first, under 50 nM for the second.

First: COc1ccc(S(=O)(=O)N2C(=O)C(c3ccccc3OC)(N3C[C@H]4C[C@@H]3CN4c3ccncc3)c3cc(Cl)ccc32)c(OC)c1 (stereo partly drawn) [Example 27, 5-Chloro-1-(2,4-dimethoxy-benzenesulphonyl)-3-(2-methoxyphenyl)-3-((1R,4R)-5-pyridin-4-yl-2,5-diaza-bicyclo[2.2.1]hept-2-yl)-1,3-dihydro-indol-2-one]
Second: CCOc1ccc(OC)cc1C1(N2C[C@@H]3C[C@H]2CN3c2ccncc2)C(=O)N(S(=O)(=O)c2ccc(OC)cc2OC)c2ccc(C#N)cc21 (stereo partly drawn) [Example 52, 5-Cyano-1-(2,4-dimethoxy-benzenesulphonyl)-3-(2-ethoxy-5-methoxyphenyl)-3-((1S,4S)-5-pyridin-4-yl-2,5-diaza-bicyclo[2.2.1]hept-2-yl)-2,3-dihydro-1H-indol-2-one]
The Ki of the first is higher: 50 to 500 nM for the first, under 50 nM for the second.

`COc1ccc(S(=O)(=O)N2C(=O)C(c3cc(OC)ccc3OC)(N3CCN(c4ccncc4)CC3)c3cc(OC)ccc32)c(OC)c1` (centres unmarked) [Example 28, 1-(2,4-Dimethoxy-benzenesulphonyl)-3-(2,5-dimethoxyphenyl)-5-methoxy-3-(4-pyridin-4-yl-piperazin-1-yl)-1,3-dihydro-indol-2-one] and `COc1ccc(S(=O)(=O)N2C(=O)C(c3cc(OC)ccc3OC)(N3CCN(c4ccncc4)CC3)c3cc(C#N)ccc32)c(OC)c1` (centres unmarked) [Example 59, 5-Cyano-1-(2,4-dimethoxy-benzenesulphonyl)-3-(2,5-dimethoxyphenyl)-3-(4-pyridin-4-yl-piperazin-1-yl)-2,3-dihydro-1H-indol-2-one] cannot be ordered by Ki: under 50 nM for the first, under 50 nM for the second.

`COc1ccc(S(=O)(=O)N2C(=O)C(c3cccc(OC)c3OC)(N3CCN(c4ccncc4)CC3)c3cc(Cl)ccc32)c(OC)c1` (centres unmarked) [Example 31, 5-Chloro-1-(2,4-dimethoxy-benzenesulphonyl)-3-(2,3-dimethoxyphenyl)-3-(4-pyridin-4-yl-piperazin-1-yl)-1,3-dihydro-indol-2-one, HCl salt] and `CCOc1ccc(OC)cc1C1(N2CCN(c3ccncc3)CC2)C(=O)N(S(=O)(=O)c2ccc(OC)cc2OC)c2ccc(C#N)cc21` (centres unmarked) [Example 55, 5-Cyano-1-(2,4-dimethoxy-benzenesulphonyl)-3-(2-ethoxy-5-methoxyphenyl)-3-(4-pyridin-4-yl-piperazin-1-yl)-2,3-dihydro-1H-indol-2-one] cannot be ordered by Ki: under 50 nM for the first, under 50 nM for the second.

First: CCOc1ccccc1C1(N2CCN(c3ccnc(C)c3)CC2)C(=O)N(S(=O)(=O)c2ccc(OC)cc2OC)c2ccc(C#N)cc21 (centres unmarked) [Example 35, 5-Cyano-1-(2,4-dimethoxy-benzenesulphonyl)-3-(2-ethoxyphenyl)-3-[4-(2-methyl-pyridin-4-yl)-piperazin-1-yl]-2,3-dihydro-1H-indol-2-one]
Second: CCOc1ccc(OC)cc1C1(N2CCN(c3ccnc(C)c3)CC2)C(=O)N(S(=O)(=O)c2ccc(OC)cc2OC)c2ccc(C#N)cc21 (centres unmarked) [Example 50, 5-Cyano-1-(2,4-dimethoxy-benzenesulphonyl)-3-(2-ethoxy-5-methoxyphenyl)-3-[4-(2-methyl-pyridin-4-yl)-piperazin-1-yl]-2,3-dihydro-1H-indol-2-one]
The Ki of the first is higher: 50 to 500 nM for the first, under 50 nM for the second.

`CCOc1ccccc1C1(N2CCN(c3ccncc3)CC2)C(=O)N(S(=O)(=O)c2ccc(NC(C)=O)cc2)c2ccc(C#N)cc21` (centres unmarked) [Example 46, N-{4-[5-Cyano-3-(2-ethoxyphenyl)-2-oxo-3-(4-pyridin-4-yl-piperazin-1-yl)-2,3-dihydro-indole-1-sulphonyl]-phenyl}-acetamide] and `CCOc1ccccc1C1(N2CCN(c3ccncc3)CC2)C(=O)N(S(=O)(=O)c2cccc(N)c2)c2ccc(C#N)cc21` (centres unmarked) [Example 48, 5-Cyano-1-(3-amino-benzenesulphonyl)-3-(2-ethoxyphenyl)-3-(4-pyridin-4-yl-piperazin-1-yl)-2,3-dihydro-1H-indol-2-one] fall in the same range of Ki: 50 to 500 nM for the first, 50 to 500 nM for the second.

`CCOc1ccccc1C1(N2CCN(c3ccncc3)CC2)C(=O)N(S(=O)(=O)c2ccc(OC)cc2OC)c2ccc(-c3ccco3)cc21` (centres unmarked) [Example 47, 1-(2,4-Dimethoxy-benzenesulphonyl)-3-(2-ethoxyphenyl)-5-furan-2-yl-3-(4-pyridin-4-yl-piperazin-1-yl)-1,3-dihydro-indol-2-one] and `CCOc1ccccc1C1(N2CCCN(c3ccncc3)CC2)C(=O)N(S(=O)(=O)c2ccc(OC)cc2OC)c2ccc(C#N)cc21` (centres unmarked) [Example 56, 5-Cyano-1-(2,4-dimethoxy-benzenesulphonyl)-3-(2-ethoxyphenyl)-3-(4-pyridin-4-yl-[1.4]diazepan-1-yl)-2,3-dihydro-1H-indol-2-one] fall in the same range of Ki: 50 to 500 nM for the first, 50 to 500 nM for the second.

First: COc1ccc(S(=O)(=O)N2C(=O)C(c3cc(OC)ccc3OC(C)C)(N3CCN(c4ccncc4)CC3)c3cc(C#N)ccc32)c(OC)c1 (centres unmarked) [Example 53, 5-Cyano-1-(2,4-dimethoxy-benzenesulphonyl)-3-(2-isopropoxy-5-methoxyphenyl)-3-(4-pyridin-4-yl-piperazin-1-yl)-2,3-dihydro-1H-indol-2-one]
Second: CCOc1ccc(OC)cc1C1(N2CCCN(c3ccncc3)CC2)C(=O)N(S(=O)(=O)c2ccc(OC)cc2OC)c2ccc(C#N)cc21 (centres unmarked) [Example 60, 5-Cyano-1-(2,4-dimethoxy-benzenesulphonyl)-3-(2-ethoxy-5-methoxyphenyl)-3-(4-pyridin-4-yl-[1.4]diazepan-1-yl)-2,3-dihydro-1H-indol-2-one]
The Ki of the first is higher: 50 to 500 nM for the first, under 50 nM for the second. The second binds more tightly here.

First: CCOc1cc(F)ccc1C1(N2CCN(c3ccncc3)CC2)C(=O)N(S(=O)(=O)c2ccc(OC)cc2OC)c2ccc(C#N)cc21 (centres unmarked) [Example 57, 5-Cyano-1-(2,4-dimethoxy-benzenesulphonyl)-3-(2-ethoxy-4-fluorophenyl)-3-(4-pyridin-4-yl-piperazin-1-yl)-2,3-dihydro-1H-indol-2-one]
Second: CCOc1ccc(OC)cc1C1(N2CCN(c3ccncc3)CC2)C(=O)N(S(=O)(=O)c2ccc(C#N)cc2)c2ccc(C#N)cc21 (centres unmarked) [Example 61, 5-Cyano-1-(4-cyano-benzenesulphonyl)-3-(2-ethoxy-5-methoxyphenyl)-3-(4-pyridin-4-yl-piperazin-1-yl)-2,3-dihydro-1H-indol-2-one]
The Ki of the first is lower: under 50 nM for the first, 50 to 500 nM for the second. The first binds more tightly here.

`CCOc1ccc(OC)cc1C1(N2CC3CN(c4ccncc4)CC3C2)C(=O)N(S(=O)(=O)c2ccc(OC)cc2OC)c2ccc(C#N)cc21` (centres unmarked) [Example 58, 5-Cyano-1-(2,4-dimethoxy-benzenesulphonyl)-3-(2-ethoxy-5-methoxyphenyl)-3-(5-pyridin-4-yl-hexahydro-pyrrolo[3,4-c]pyrrol-2-yl)-2,3-dihydro-1H-indol-2-one] gave a Ki of under 50 nM.
